In ChEMBL document CHEMBL1697781, “Assessment of the health effects of chemicals in humans: II. Construction of an adverse effects database for QSAR modeling” (Curr Drug Discov Technol, 2004):

Columns and labels:
Settings in all cases: human
Hepatotoxicity [1] = assay: FDA HLAED, alkaline phosphatase increase
Hepatotoxicity [2] = assay: FDA HLAED, liver enzyme composite activity
Hepatotoxicity [3] = assay: FDA HLAED, serum glutamic pyruvic transaminase (SGPT) increase
Hepatotoxicity [4] = assay: FDA HLAED, serum glutamic oxaloacetic transaminase (SGOT) increase
Hepatotoxicity [5] = assay: FDA HLAED, lactate dehydrogenase (LDH) increase
Hepatotoxicity [6] = assay: FDA HLAED, gamma-glutamyl transferase (GGT) increase
Throughout, for GGT Increase - Index Value: reference of the scale not given here.
Throughout, for LDH Increase - Index Value: reference of the scale not given here.

## Clc1ccc2c(c1)C(c1ccccc1)=NCc1nncn1-2 [ESTAZOLAM]
Hepatotoxicity [1]
  Alkaline Phosphatase Increase - Activity Score: Inactive
  Alkaline Phosphatase Increase - Index Value: 0
  Alkaline Phosphatase Increase - Number of Reports: < 4
Hepatotoxicity [2]
  Composite Activity - Active: 0
  Composite Activity - Marginal: 0
  Composite Activity - Score: Inactive
Hepatotoxicity [3]
  SGPT Increase - Activity Score: Inactive
  SGPT Increase - Index Value: 0.8
  SGPT Increase - Number of Reports: < 4
Hepatotoxicity [4]
  SGOT Increase - Activity Score: Inactive
  SGOT Increase - Index Value: 0.8
  SGOT Increase - Number of Reports: < 4
Hepatotoxicity [5]
  LDH Increase - Activity Score: Inactive
  LDH Increase - Index Value: 0
  LDH Increase - Number of Reports: < 4
Hepatotoxicity [6]
  GGT Increase - Activity Score: Inactive
  GGT Increase - Index Value: 0.8
  GGT Increase - Number of Reports: < 4

## C[C@]12CC[C@@H]3c4ccc(OC(=O)c5ccccc5)cc4CC[C@H]3[C@@H]1CC[C@@H]2O [ESTRADIOL BENZOATE]
Hepatotoxicity [1]
  Alkaline Phosphatase Increase - Activity Score: Inactive
  Alkaline Phosphatase Increase - Index Value: 1.5
  Alkaline Phosphatase Increase - Number of Reports: >= 4
Hepatotoxicity [2]
  Composite Activity - Active: 0
  Composite Activity - Marginal: 0
  Composite Activity - Score: Inactive
Hepatotoxicity [3]
  SGPT Increase - Activity Score: Inactive
  SGPT Increase - Index Value: 2.1
  SGPT Increase - Number of Reports: >= 4
Hepatotoxicity [4]
  SGOT Increase - Activity Score: Inactive
  SGOT Increase - Index Value: 2.8
  SGOT Increase - Number of Reports: >= 4
Hepatotoxicity [5]
  LDH Increase - Activity Score: Inactive
  LDH Increase - Index Value: 1.2
  LDH Increase - Number of Reports: >= 4
Hepatotoxicity [6]
  GGT Increase - Activity Score: Inactive
  GGT Increase - Index Value: 0.3
  GGT Increase - Number of Reports: < 4

## C[C@]12CC[C@@H]3c4ccc(O)cc4CC[C@H]3[C@@H]1CC[C@@H]2OC(=O)CCC1CCCC1 [ESTRADIOL CYPIONATE]
Hepatotoxicity [1]
  Alkaline Phosphatase Increase - Activity Score: Inactive
  Alkaline Phosphatase Increase - Index Value: 1.5
  Alkaline Phosphatase Increase - Number of Reports: >= 4
Hepatotoxicity [2]
  Composite Activity - Active: 0
  Composite Activity - Marginal: 0
  Composite Activity - Score: Inactive
Hepatotoxicity [3]
  SGPT Increase - Activity Score: Inactive
  SGPT Increase - Index Value: 2.1
  SGPT Increase - Number of Reports: >= 4
Hepatotoxicity [4]
  SGOT Increase - Activity Score: Inactive
  SGOT Increase - Index Value: 2.8
  SGOT Increase - Number of Reports: >= 4
Hepatotoxicity [5]
  LDH Increase - Activity Score: Inactive
  LDH Increase - Index Value: 1.2
  LDH Increase - Number of Reports: >= 4
Hepatotoxicity [6]
  GGT Increase - Activity Score: Inactive
  GGT Increase - Index Value: 0.3
  GGT Increase - Number of Reports: < 4

## CCC(=O)Oc1ccc2c(c1)CC[C@@H]1[C@@H]2CC[C@]2(C)[C@@H](OC(=O)CC)CC[C@@H]12 [ESTRADIOL DIPROPIONATE]
Hepatotoxicity [1]
  Alkaline Phosphatase Increase - Activity Score: Inactive
  Alkaline Phosphatase Increase - Index Value: 1.5
  Alkaline Phosphatase Increase - Number of Reports: >= 4
Hepatotoxicity [2]
  Composite Activity - Active: 0
  Composite Activity - Marginal: 0
  Composite Activity - Score: Inactive
Hepatotoxicity [3]
  SGPT Increase - Activity Score: Inactive
  SGPT Increase - Index Value: 2.1
  SGPT Increase - Number of Reports: >= 4
Hepatotoxicity [4]
  SGOT Increase - Activity Score: Inactive
  SGOT Increase - Index Value: 2.8
  SGOT Increase - Number of Reports: >= 4
Hepatotoxicity [5]
  LDH Increase - Activity Score: Inactive
  LDH Increase - Index Value: 1.2
  LDH Increase - Number of Reports: >= 4
Hepatotoxicity [6]
  GGT Increase - Activity Score: Inactive
  GGT Increase - Index Value: 0.3
  GGT Increase - Number of Reports: < 4

## CCCCCCC(=O)O[C@H]1CC[C@H]2[C@@H]3CCc4cc(O)ccc4[C@H]3CC[C@]12C [ESTRADIOL ENANTHATE]
Hepatotoxicity [1]
  Alkaline Phosphatase Increase - Activity Score: Inactive
  Alkaline Phosphatase Increase - Index Value: 1.5
  Alkaline Phosphatase Increase - Number of Reports: >= 4
Hepatotoxicity [2]
  Composite Activity - Active: 0
  Composite Activity - Marginal: 0
  Composite Activity - Score: Inactive
Hepatotoxicity [3]
  SGPT Increase - Activity Score: Inactive
  SGPT Increase - Index Value: 2.1
  SGPT Increase - Number of Reports: >= 4
Hepatotoxicity [4]
  SGOT Increase - Activity Score: Inactive
  SGOT Increase - Index Value: 2.8
  SGOT Increase - Number of Reports: >= 4
Hepatotoxicity [5]
  LDH Increase - Activity Score: Inactive
  LDH Increase - Index Value: 1.2
  LDH Increase - Number of Reports: >= 4
Hepatotoxicity [6]
  GGT Increase - Activity Score: Inactive
  GGT Increase - Index Value: 0.3
  GGT Increase - Number of Reports: < 4

## C[C@]12CC[C@@H]3c4ccc(OC(=O)Cc5ccc(N(CCCl)CCCl)cc5)cc4CC[C@H]3[C@@H]1CC[C@@H]2OC(=O)Cc1ccc(N(CCCl)CCCl)cc1 [ESTRADIOL MUSTARD]
Hepatotoxicity [1]
  Alkaline Phosphatase Increase - Activity Score: Inactive
  Alkaline Phosphatase Increase - Index Value: 0
  Alkaline Phosphatase Increase - Number of Reports: < 4
Hepatotoxicity [2]
  Composite Activity - Active: 0
  Composite Activity - Marginal: 0
  Composite Activity - Score: Inactive
Hepatotoxicity [3]
  SGPT Increase - Activity Score: Inactive
  SGPT Increase - Index Value: 0
  SGPT Increase - Number of Reports: < 4
Hepatotoxicity [4]
  SGOT Increase - Activity Score: Inactive
  SGOT Increase - Index Value: 0
  SGOT Increase - Number of Reports: < 4
Hepatotoxicity [5]
  LDH Increase - Activity Score: Inactive
  LDH Increase - Index Value: 0
  LDH Increase - Number of Reports: < 4
Hepatotoxicity [6]
  GGT Increase - Activity Score: Inactive
  GGT Increase - Index Value: 0
  GGT Increase - Number of Reports: < 4

## CCCCCCCCCCC(=O)O[C@H]1CC[C@H]2[C@@H]3CCc4cc(O)ccc4[C@H]3CC[C@]12C [ESTRADIOL UNDECYLATE]
Hepatotoxicity [1]
  Alkaline Phosphatase Increase - Activity Score: Inactive
  Alkaline Phosphatase Increase - Index Value: 1.5
  Alkaline Phosphatase Increase - Number of Reports: >= 4
Hepatotoxicity [2]
  Composite Activity - Active: 0
  Composite Activity - Marginal: 0
  Composite Activity - Score: Inactive
Hepatotoxicity [3]
  SGPT Increase - Activity Score: Inactive
  SGPT Increase - Index Value: 2.1
  SGPT Increase - Number of Reports: >= 4
Hepatotoxicity [4]
  SGOT Increase - Activity Score: Inactive
  SGOT Increase - Index Value: 2.8
  SGOT Increase - Number of Reports: >= 4
Hepatotoxicity [5]
  LDH Increase - Activity Score: Inactive
  LDH Increase - Index Value: 1.2
  LDH Increase - Number of Reports: >= 4
Hepatotoxicity [6]
  GGT Increase - Activity Score: Inactive
  GGT Increase - Index Value: 0.3
  GGT Increase - Number of Reports: < 4

## CCCCC(=O)O[C@H]1CC[C@H]2[C@@H]3CCc4cc(O)ccc4[C@H]3CC[C@]12C [ESTRADIOL VALERATE]
Hepatotoxicity [1]
  Alkaline Phosphatase Increase - Activity Score: Inactive
  Alkaline Phosphatase Increase - Index Value: 1.5
  Alkaline Phosphatase Increase - Number of Reports: >= 4
Hepatotoxicity [2]
  Composite Activity - Active: 0
  Composite Activity - Marginal: 0
  Composite Activity - Score: Inactive
Hepatotoxicity [3]
  SGPT Increase - Activity Score: Inactive
  SGPT Increase - Index Value: 2.1
  SGPT Increase - Number of Reports: >= 4
Hepatotoxicity [4]
  SGOT Increase - Activity Score: Inactive
  SGOT Increase - Index Value: 2.8
  SGOT Increase - Number of Reports: >= 4
Hepatotoxicity [5]
  LDH Increase - Activity Score: Inactive
  LDH Increase - Index Value: 1.2
  LDH Increase - Number of Reports: >= 4
Hepatotoxicity [6]
  GGT Increase - Activity Score: Inactive
  GGT Increase - Index Value: 0.3
  GGT Increase - Number of Reports: < 4

## C[C@]12CC[C@@H]3c4ccc(O)cc4CC[C@H]3[C@@H]1CC[C@@H]2O [ESTRADIOL]
Hepatotoxicity [1]
  Alkaline Phosphatase Increase - Activity Score: Inactive
  Alkaline Phosphatase Increase - Index Value: 1.5
  Alkaline Phosphatase Increase - Number of Reports: >= 4
Hepatotoxicity [2]
  Composite Activity - Active: 0
  Composite Activity - Marginal: 0
  Composite Activity - Score: Inactive
Hepatotoxicity [3]
  SGPT Increase - Activity Score: Inactive
  SGPT Increase - Index Value: 2.1
  SGPT Increase - Number of Reports: >= 4
Hepatotoxicity [4]
  SGOT Increase - Activity Score: Inactive
  SGOT Increase - Index Value: 2.8
  SGOT Increase - Number of Reports: >= 4
Hepatotoxicity [5]
  LDH Increase - Activity Score: Inactive
  LDH Increase - Index Value: 1.2
  LDH Increase - Number of Reports: >= 4
Hepatotoxicity [6]
  GGT Increase - Activity Score: Inactive
  GGT Increase - Index Value: 0.3
  GGT Increase - Number of Reports: < 4

## C[C@]12CC[C@@H]3c4ccc(OC(=O)N(CCCl)CCCl)cc4CC[C@H]3[C@@H]1CC[C@@H]2O [ESTRAMUSTINE]
Hepatotoxicity [1]
  Alkaline Phosphatase Increase - Activity Score: Active
  Alkaline Phosphatase Increase - Index Value: 43.7
  Alkaline Phosphatase Increase - Number of Reports: < 4
Hepatotoxicity [2]
  Composite Activity - Active: 1
  Composite Activity - Marginal: 0
  Composite Activity - Score: Inactive
Hepatotoxicity [3]
  SGPT Increase - Activity Score: Inactive
  SGPT Increase - Index Value: 0
  SGPT Increase - Number of Reports: < 4
Hepatotoxicity [4]
  SGOT Increase - Activity Score: Inactive
  SGOT Increase - Index Value: 0
  SGOT Increase - Number of Reports: < 4
Hepatotoxicity [5]
  LDH Increase - Activity Score: Inactive
  LDH Increase - Index Value: 0
  LDH Increase - Number of Reports: < 4
Hepatotoxicity [6]
  GGT Increase - Activity Score: Inactive
  GGT Increase - Index Value: 0
  GGT Increase - Number of Reports: < 4

## CCc1cccc2c3c([nH]c12)C(CC)(CC(=O)O)OCC3 (stereo unspecified) [ETODOLAC]
Hepatotoxicity [1]
  Alkaline Phosphatase Increase - Activity Score: Inactive
  Alkaline Phosphatase Increase - Index Value: 0.8
  Alkaline Phosphatase Increase - Number of Reports: >= 4
Hepatotoxicity [2]
  Composite Activity - Active: 0
  Composite Activity - Marginal: 0
  Composite Activity - Score: Inactive
Hepatotoxicity [3]
  SGPT Increase - Activity Score: Inactive
  SGPT Increase - Index Value: 1.4
  SGPT Increase - Number of Reports: >= 4
Hepatotoxicity [4]
  SGOT Increase - Activity Score: Inactive
  SGOT Increase - Index Value: 1.1
  SGOT Increase - Number of Reports: >= 4
Hepatotoxicity [5]
  LDH Increase - Activity Score: Inactive
  LDH Increase - Index Value: 0.6
  LDH Increase - Number of Reports: >= 4
Hepatotoxicity [6]
  GGT Increase - Activity Score: Inactive
  GGT Increase - Index Value: 0.8
  GGT Increase - Number of Reports: >= 4

## CCOC(=O)c1cncn1[C@H](C)c1ccccc1 [ETOMIDATE]
Hepatotoxicity [1]
  Alkaline Phosphatase Increase - Activity Score: Inactive
  Alkaline Phosphatase Increase - Index Value: 0
  Alkaline Phosphatase Increase - Number of Reports: < 4
Hepatotoxicity [2]
  Composite Activity - Active: 0
  Composite Activity - Marginal: 0
  Composite Activity - Score: Inactive
Hepatotoxicity [3]
  SGPT Increase - Activity Score: Inactive
  SGPT Increase - Index Value: 0
  SGPT Increase - Number of Reports: < 4
Hepatotoxicity [4]
  SGOT Increase - Activity Score: Inactive
  SGOT Increase - Index Value: 0
  SGOT Increase - Number of Reports: < 4
Hepatotoxicity [5]
  LDH Increase - Activity Score: Inactive
  LDH Increase - Index Value: 0
  LDH Increase - Number of Reports: < 4
Hepatotoxicity [6]
  GGT Increase - Activity Score: Inactive
  GGT Increase - Index Value: 0
  GGT Increase - Number of Reports: < 4
